Patent US5068247A, “2-aminopentanoic acid compounds and their use as immunosuppressants” (priority 1989, dated 1991)

Tests used:
[1] = test system: IL-2 production in mouse allogenic MLC; experiment: suppression of IL-2 production in mouse allogenic MLC; type: cell-based; conditions: for inhibition at 0.0001 µg/mL / inhibition at 0.001 µg/mL / inhibition at 0.01 µg/mL / inhibition at 0.1 µg/mL / inhibition at 1 µg/mL: Mus musculus, 48 h
Experimental: Mouse allogenic MLC was carried out as follows:
After termination of culture, the supernatant was collected and used as the supernatant of mouse allogenic MLC.
The IL-2 and IL-3 activities in the supernatant of mouse allogenic MLC were assayed in the same way as in Experiment Example 4.

[2] = test system: anti-sheep red blood cell antibody production; experiment: suppression of mouse anti-sheep red blood cell antibody production; type: in vivo; conditions: for Body weight at 4 days later / Body weight on immunized day / Number of PFC per 1 × 10^7 cell / Number of PFC per spleen / Number of spleen cells / Suppression of number of PFC per 1 × 10^7 cell / Suppression of number of PFC per spleen / Wet weight of spleen / Wet weight of thymus: 4 days
Experimental: Male 5- to 7-week-old BALB/c mice were immunized with sheep red blood cells (5×10^7 cells/mouse, intravenous administration), and the test substance was administered intraperitoneally at the dose of 3 to 10 mg/kg/day for 4 consecutive days from the day of immunization. Four days after immunization, the spleen was resected, and suppression of anti-sheep red blood cell antibody production was examined by counting the number of plaque-forming cells (PFC) by direct plaque method using sheep red blood cells and guinea pig complement. At the same time, the body weight of the mouse, wet weight of the thymus and the spleen, and the number of spleen cells were also determined.

HL60 = experiment: cytotoxicity to cultured tumor cell line HL60
Experimental: Cytotoxicity to various human tumor cell lines was examined as follows:
Cells of human cell lines, K562, MOLT4, U937 and HL60 were respectively suspended to the concentration of 4×10^5 cells/ml in the RPMI1640 culture medium supplemented with 20% FCS. Fifty μl of each suspension was added to each well of a 96-well microtest plate to which 50 μl of the test solution had been added. After culturing the suspension at 37° C. in an atmosphere of 5% carbon dioxide for 72 hours, the absorbancy at 570 nm was measured in the same way as with the colorimetry using MTT in Experiment Example 1, and the percent suppression was calculated by the following formula, which was used as an index of cytotoxicity.

[3] = test system: IL-1 response of mouse thymocytes; experiment: suppression of the IL-1 response of mouse thymocytes; type: cell-based; conditions: IL-1 50 U/ml
Experimental: The thymus was resected from 6-week-old male C3H/HeN mice, and a single cell suspension was prepared using the serum-free RPMI1640 culture medium. After washing three times, the cell suspension was adjusted to a concentration of 1.5×10^7 cells/ml in the RPMI1640 culture medium supplemented with 10^-4 M 2-mercaptoethanol and 20% FCS. […] After termination of culture, 18.5 KBq/well of ^3 H-thymidine was added thereto. After culturing the suspension for further 18 hours, the cells were harvested by a cell harvester, and the radioactivity incorporated into the cells was measured by a liquid scintillation counter, which was used as an index of IL-1, IL-2 or IL-4 response. The suppression of IL-1, IL-2 or IL-4 response was evaluated by calculating the percent suppression by the following formula. [formula]

[4] = test system: IL-2 response of mouse thymocytes; experiment: suppression of the IL-2 response of mouse thymocytes; type: cell-based; conditions: for inhibition at 0.0001 µg/mL / inhibition at 0.001 µg/mL / inhibition at 0.01 µg/mL / inhibition at 0.1 µg/mL / inhibition at 1 µg/mL: Mus musculus, Thymocyte, 72 h
Experimental: The thymus was resected from 6-week-old male C3H/HeN mice, and a single cell suspension was prepared using the serum-free RPMI1640 culture medium. After washing three times, the cell suspension was adjusted to a concentration of 1.5×10^7 cells/ml in the RPMI1640 culture medium supplemented with 10^-4 M 2-mercaptoethanol and 20% FCS. […] After culturing the suspension for further 18 hours, the cells were harvested by a cell harvester, and the radioactivity incorporated into the cells was measured by a liquid scintillation counter, which was used as an index of IL-1, IL-2 or IL-4 response. The suppression of IL-1, IL-2 or IL-4 response was evaluated by calculating the percent suppression by the following formula. [formula]

[5] = test system: mouse acute graft versus host reaction (GVHR); experiment: suppression of mouse acute graft versus host reaction (GVHR); type: in vivo
Experimental: C57BL/6 mouse spleen cell suspension (2×10^7 cells/mouse) was injected into the right hind footpad of 5- to 7-week-old BDF1 female mice. Seven days after injection, right popliteal lymph node was resected to measure the weight thereof and compare the weight with that of the left popliteal lymph node of the control mice injected with physiological saline, which was used as an index of acute graft versus host reaction (GVHR). The compound of Example 5 was administered intraperitoneally at the dose of 0.3 mg/kg, orally at the dose of 1 mg/kg and intramuscularly at the doses of 0.3 and 1 mg/kg for 6 days from the day of injection, and at the seventh day, the weight of the right poples lymphonodus was measured.

CCCCCCCCCCCCCCCC[C@@H](O)[C@H](O)[C@@](N)(CO)C(=O)O [Example 2]
IL-2 activity ([1]; 0.0001 μg/ml): 3.9 U/ml
IL-2 activity ([1]; 0.001 μg/ml): 3.1 U/ml
IL-2 activity ([1]; 0.01 μg/ml): 3.6 U/ml
IL-2 activity ([1]; 0.1 μg/ml): 1 U/ml
IL-2 activity ([1]; 1 μg/ml): 1.6 U/ml
inhibition at 0.0001 µg/mL ([1]; 0.0001 μg/ml): 13.3%
inhibition at 0.001 µg/mL ([1]; 0.001 μg/ml): 31.1%
inhibition at 0.01 µg/mL ([1]; 0.01 μg/ml): 17.8%
inhibition at 0.1 µg/mL ([1]; 0.1 μg/ml): 68.9%
inhibition at 1 µg/mL ([1]; 1 μg/ml): 64.4%
Body weight at 4 days later ([2]; 3 mg/kg/day ip): 24 ± 1 g
Body weight on immunized day ([2]; 3 mg/kg/day ip): 22 ± 1 g
Number of PFC per 1 × 10^7 cell ([2]; 3 mg/kg/day ip): 5.5 ± 0.8 × 10^3 /1 × 10^7 cell
Number of PFC per spleen ([2]; 3 mg/kg/day ip): 17.9 ± 3.6 × 10^4 /spleen
Number of spleen cells ([2]; 3 mg/kg/day ip): 3.3 ± 0.5 × 10^8 cell
Suppression of number of PFC per 1 × 10^7 cell ([2]; 3 mg/kg/day ip): 36.8%
Suppression of number of PFC per spleen ([2]; 3 mg/kg/day ip): 23.2%
Wet weight of spleen ([2]; 3 mg/kg/day ip): 58 ± 11 mg
Wet weight of thymus ([2]; 3 mg/kg/day ip): 318 ± 42 mg
Body weight at 4 days later ([2]; 10 mg/kg/day ip): 23 ± 1 g
Body weight on immunized day ([2]; 10 mg/kg/day ip): 22 ± 1 g
Number of PFC per 1 × 10^7 cell ([2]; 10 mg/kg/day ip): 4.0 ± 2.0 × 10^3 /1 × 10^7 cell
Number of PFC per spleen ([2]; 10 mg/kg/day ip): 10.2 ± 5.5 × 10^4 /spleen
Number of spleen cells ([2]; 10 mg/kg/day ip): 2.5 ± 0.2 × 10^8 cell
Suppression of number of PFC per 1 × 10^7 cell ([2]; 10 mg/kg/day ip): 54.9%
Suppression of number of PFC per spleen ([2]; 10 mg/kg/day ip): 56.2%
Wet weight of spleen ([2]; 10 mg/kg/day ip): 58 ± 10 mg
Wet weight of thymus ([2]; 10 mg/kg/day ip): 233 ± 25 mg
effect on anti-sheep red blood cell antibody production (in words) ([2]; ip): exhibits suppressive effect on anti-sheep red blood cell antibody production
Absorbancy (HL60; 0.1 μg/ml): 1.385 ± 0.066
Absorbancy (HL60; 1 μg/ml): 1.466 ± 0.126
Absorbancy (HL60; 10 μg/ml): 1.441 ± 0.018

CCCCCCCCCCCCC/C=C/C[C@@H](O)[C@H](O)[C@@](N)(CO)C(=O)O [Example 5]
IL-2 activity ([1]; 0.0001 μg/ml): 3.2 U/ml
IL-2 activity ([1]; 0.001 μg/ml): 2.9 U/ml
IL-2 activity ([1]; 0.01 μg/ml): < 1.0 U/ml
IL-2 activity ([1]; 0.1 μg/ml): < 1.0 U/ml
IL-2 activity ([1]; 1 μg/ml): < 1.0 U/ml
inhibition at 0.0001 µg/mL ([1]; 0.0001 μg/ml): 28.9%
inhibition at 0.001 µg/mL ([1]; 0.001 μg/ml): 35.6%
inhibition at 0.01 µg/mL ([1]; 0.01 μg/ml): 100%
inhibition at 0.1 µg/mL ([1]; 0.1 μg/ml): 100%
inhibition at 1 µg/mL ([1]; 1 μg/ml): 100%
3H-thymidine uptake ([3]; 0.0001 μg/ml): 10320 ± 1490 cpm
3H-thymidine uptake ([3]; 0.001 μg/ml): 7756 ± 686 cpm
3H-thymidine uptake ([3]; 0.01 μg/ml): 1239 ± 548 cpm
3H-thymidine uptake ([3]; 0.1 μg/ml): 595 ± 144 cpm
3H-thymidine uptake ([3]; 1 μg/ml): 419 ± 36 cpm
inhibition at 0.0001 µg/mL ([3]; Mus musculus, Thymocyte, 72 h, 0.0001 μg/ml): 11.3%
inhibition at 0.001 µg/mL ([3]; Mus musculus, Thymocyte, 72 h, 0.001 μg/ml): 33.7%
inhibition at 0.01 µg/mL ([3]; Mus musculus, Thymocyte, 72 h, 0.01 μg/ml): 90.7%
inhibition at 0.1 µg/mL ([3]; Mus musculus, Thymocyte, 72 h, 0.1 μg/ml): 96.3%
inhibition at 1 µg/mL ([3]; Mus musculus, Thymocyte, 72 h, 1 μg/ml): 97.8%
3H-thymidine uptake ([4]; 0.0001 μg/ml, IL-2 10 U/ml): 2810 cpm
3H-thymidine uptake ([4]; 0.0001 μg/ml, IL-2 50 U/ml): 63715 cpm
3H-thymidine uptake ([4]; 0.001 μg/ml, IL-2 10 U/ml): 1660 cpm
3H-thymidine uptake ([4]; 0.001 μg/ml, IL-2 50 U/ml): 57600 cpm
3H-thymidine uptake ([4]; 0.01 μg/ml, IL-2 10 U/ml): 1285 cpm
3H-thymidine uptake ([4]; 0.01 μg/ml, IL-2 50 U/ml): 32955 cpm
3H-thymidine uptake ([4]; 0.1 μg/ml, IL-2 10 U/ml): 1125 cpm
3H-thymidine uptake ([4]; 0.1 μg/ml, IL-2 50 U/ml): 24600 cpm
3H-thymidine uptake ([4]; 1 μg/ml, IL-2 10 U/ml): 1300 cpm
3H-thymidine uptake ([4]; 1 μg/ml, IL-2 50 U/ml): 25525 cpm
inhibition at 0.0001 µg/mL ([4]; 0.0001 μg/ml, IL-2 10 U/ml): 0%
inhibition at 0.0001 µg/mL ([4]; 0.0001 μg/ml, IL-2 50 U/ml): 0%
inhibition at 0.001 µg/mL ([4]; 0.001 μg/ml, IL-2 10 U/ml): 46.7%
inhibition at 0.001 µg/mL ([4]; 0.001 μg/ml, IL-2 50 U/ml): 4.5%
inhibition at 0.01 µg/mL ([4]; 0.01 μg/ml, IL-2 10 U/ml): 62.1%
inhibition at 0.1 µg/mL ([4]; 0.1 μg/ml, IL-2 10 U/ml): 68.6%
inhibition at 0.1 µg/mL ([4]; 0.1 μg/ml, IL-2 50 U/ml): 59.4%
inhibition at 1 µg/mL ([4]; 1 μg/ml, IL-2 10 U/ml): 61.5%
inhibition at 1 µg/mL ([4]; 1 μg/ml, IL-2 50 U/ml): 58%
inhibition at 0.01 µg/mL ([4]; 0.01 μg/ml, IL-2 50 U/ml): 45.5%
Body weight 7 days after injection ([5]; 0.3 mg/kg/day im × 6): 20.0 ± 0.7 g
Popliteal lymph node weight ([5]; 0.3 mg/kg/day im × 6): 2.88 ± 0.58 mg
Suppression ([5]; 0.3 mg/kg/day im × 6): 60.0%
Body weight 7 days after injection ([5]; 0.3 mg/kg/day ip × 6): 19.0 ± 2.2 g
Popliteal lymph node weight ([5]; 0.3 mg/kg/day ip × 6): 4.46 ± 1.72 mg
Suppression ([5]; 0.3 mg/kg/day ip × 6): 38.1%
Body weight 7 days after injection ([5]; 1 mg/kg/day im × 6): 18.8 ± 1.3 g
Popliteal lymph node weight ([5]; 1 mg/kg/day im × 6): 2.28 ± 0.48 mg
Suppression ([5]; 1 mg/kg/day im × 6): 68.3%
Body weight 7 days after injection ([5]; 1 mg/kg/day po × 6): 20.4 ± 0.6 g
Popliteal lymph node weight ([5]; 1 mg/kg/day po × 6): 3.30 ± 0.64 mg
Suppression ([5]; 1 mg/kg/day po × 6): 54.2%
mouse acute graft versus host reaction (in words) ([5]; intraperitoneal, oral or intramuscular): strongly suppresses the mouse acute graft versus host reaction (GVHR)
Absorbancy (HL60; 0.1 μg/ml): 1.505 ± 0.035
Absorbancy (HL60; 1 μg/ml): 1.415 ± 0.010
Absorbancy (HL60; 10 μg/ml): 1.201 ± 0.061
